Test results reported in US11427586B2, “1,2,4-oxadiazole derivatives as liver X receptor agonists” (NOVARTIS AG, priority 2019, dated 2022).
Where two headings read alike, the source gives them in different places.

What was measured:
SCD1 = test: Measurement of SCD1 expression in SZ95-SCD1-HiBit cells (HiBiT assay); assay type: cell-based; details: Homo sapiens; for EC50: read-out: HiBit EC50
Description: Measurement of SCD1 Expression in SZ95-SCD1-HiBit Cells
SCD1 expression levels in SZ95 cells were quantitated using the HiBiT system (Promega) in which a small peptide sequence (SmBiT) with a larger protein (LgBiT) reconstitutes luciferase activity and can generate a luminescent signal used for quantitation. SZ95-SCD1-HiBit cells were generated by editing the SCD1 gene of SZ95 cells resulting in the addition of an 8 amino acid linker sequence (gssggssg, SEQ ID NO:1) followed by an 11-amino acid SmBiT sequence (vsgwrlfkkis, SEQ ID NO:2) at the carboxy-terminus of the SCD1 protein. The gRNA targeting sequence used was […] (SEQ ID NO: 3) and the SCD1 insertion oligonucleotide encoding the SmBiT sequence was:
SZ95-SCD1-HiBit cells were seeded in 384-well cell culture white plates at a density of 3000 cells/30 μl. Water was added to edge wells to avoid evaporation. Cells were incubated in a humidified incubator with 5% CO2 at 37° C. overnight. Tested compounds were diluted at a ratio of 1:3 in DMSO using an Agilent BRAVO Automated Liquid Handling Platform and, after further serial dilutions, added to cells at final concentrations starting from 18 μM. 2-(3-(3-((2-chloro-3-(trifluoromethyl)benzyl)(2,2-diphenylethyl)amino)propoxy)phenyl)acetic acid was used as a reference compound in each plate. Cells in the assay plate were incubated in a humidified incubator with 5% CO2 at 37° C. for 48 h.
The assay plates were removed from the incubator and allowed to equilibrate to room temperature. Nano-Glo® HiBiT Detection Reagent (Promega; a mixture of Nano-Glo HiBiT Detection Buffer, Nano-Glo HiBiT Detection Substrate, and LgBiT protein, according to the manufacturer's instructions) was added into assay plates, at a volume equal to cell culture medium in each well. Plates were placed on an orbital shaker at a speed of 300-600 rpm for 10 min at room temperature, and read on an EnVision Plate Reader using luminescence detection with a 1 second read time.
The assay measures the increase in SCD1 protein production in vitro. Amax refers to the percent EC50 of the tested compound compared to a reference compound, 2-(3-(3-((2-chloro-3-(trifluoromethyl)benzyl)(2,2-diphenylethyl)amino)propoxy)phenyl)acetic acid.

SZ95 sebocytes = test: Sentinel Lipid Assay (SLA), desaturation index in SZ95 sebocytes; assay type: cell-based; details: Homo sapiens, 72 h; for EC50: read-out: SLA EC50
Description: Sentinel Lipid Assay (SLA)
The sentinel lipid assay was used quantify the change in the global desaturation index in SZ95 sebocytes upon administration of certain LXR agonist compounds provided herein. The assay measures a smaller subset of lipid analytes in meibum (termed “sentinel lipids”) which would model the global changes the population of both saturated and desaturated lipids in the cells. In order to define this smaller subset of lipids, a complete lipid profile was recorded on dose response curves (eight levels from 4 nM to 10 uM) of Compounds 1-72. An elastic net regression model was applied separately to both the saturated and desaturated lipids to determine the minimum combination of coefficients and analytes, which could be used to adequately model the total population of lipids. The elastic net model was able to reduce the behavior of 425 lipids to 11 lipids and the correlation between the desaturation indices observed using the complete set of lipids with from the 11 sentinel lipids was 0.96.
A medium throughput assay was created using this reduced set of sentinel lipids. A single batch is defined as triplicate examples of three unique plates (i.e., a single batch of cells is used to create nine plates for LC-MSMS analysis). Lipids were extracted from the cells using a 1:1 mixture of methylene chloride/methanol containing 10 nM of deuterated standards of triglycerides, which are used as internal standards for quantitating the lipid abundance. The lipids were separated prior to mass spectrometric analysis using a five minute HPLC gradient. The abundance of the sentinel lipids and the internal standards are measured using multiple reaction monitor mode (MRM) on a triple quadrupole mass spectrometer. The data was transformed from total ion current to nmoles/10^6 cells, which are multiplied by the coefficients from the elastic net model to determine the effective desaturated and saturated content, and therein the desaturation index of the dosed cells. In order to compare compounds from multiple batches with one another, the measure raw desaturation index was normalized by dividing it by the desaturation index of the DMSO dosed cells, and all data was assessed as the fraction by which the compound increases the desaturation index above 1.
SZ95 (immortalized human sebaceous gland cells) cells were seeded in Greiner bio-one 96-well polypropylene plates that were pre-treated with 50 μg/mL Human Plasma Fibronectin (Thermo Fisher Scientific) at a density of 10^4 cells/135 μl. Cells were incubated in a humidified incubator with 5% CO2 at 37° C. overnight. Test compounds were diluted at a ratio of 1:3 and added to cells at final concentrations starting from 10 μM. 2-(3-(3-((2-chloro-3-(trifluoromethyl)benzyl)(2,2-diphenylethyl)amino)propoxy)phenyl)acetic acid was used as a positive control reference compound in each plate. Cells in the assay plate were incubated in a humidified incubator with 5% CO2 at 37° C. for 72 h.
Culture medium was removed from the cells and cells in culture plates were washed with ice cold phosphate buffered saline three times. Plates were heat sealed and stored in a −80° C. freezer prior to Sentinel lipid assay. The Amax value refers to the percent EC50 of the tested compound compared to a reference compound, 2-(3-(3-((2-chloro-3-(trifluoromethyl)benzyl)(2,2-diphenylethyl)amino)propoxy)phenyl)acetic acid.

[1] = 48 h, normalized Amax based on the reference compound Amax of 100%, read-out: HiBit Normalized Amax
[2] = SZ95-SCD1-HiBit cells, 48 h, SCD1 protein production, luminescence, initial dilution 1:3 in DMSO
[3] = SZ95-SCD1-HiBit cells, 48 h, compared to reference compound, read-out: HiBit Amax
[4] = normalized Amax based on the reference compound Amax of 100%, read-out: SLA Normalized Amax
[5] = SZ95 cells, desaturation index, lowest dose used 4.6 nM
[6] = SZ95 cells, compared to reference compound, read-out: SLA Amax
[7] = footnote a: initial dilution for the compound 1:100 in assay medium rather than 1:3 in DMSO

| Compound | Emax (SCD1; [1]) [%] | EC50 (SCD1; [2]) [nM] | Emax (SCD1; [3]) [%] | Emax (SZ95 sebocytes; [4]) [%] | EC50 (SZ95 sebocytes; [5]) [nM] | Emax (SZ95 sebocytes; [6]) [%] | EC50 (SCD1; [7]) [nM] | Emax (SZ95 sebocytes; read-out: SLA Amax) [%] | EC50 (SZ95 sebocytes) [nM] | Emax (SZ95 sebocytes; read-out: SLA Normalized Amax) [%] |
| --- | --- | --- | --- | --- | --- | --- | --- | --- | --- | --- |
| CC1(C)C(=O)N(Cc2nc(-c3ccc(OCC(C)(C(F)(F)F)C(F)(F)F)c(C(F)(F)F)c3)no2)C(=O)N1CCC1CCOCC1 [Compound 1, 5,5-dimethyl-1-(2-(tetrahydro-2H-pyran-4-yl)ethyl)-3-((3-(4-(3,3,3-trifluoro-2-methyl-2-(trifluoromethyl)propoxy)-3-(trifluoromethyl)phenyl)-1,2,4-oxadiazol-5-yl)methyl)imidazolidine-2,4-dione] | 91.7 | 0.496 | 87.2 | 87.1 | ≤ 4.6 | 83.6 | – | – | – | – |
| CCCC1(C)C(=O)N(Cc2nc(-c3ccc(Oc4ccccc4S(=O)(=O)CC(C)C)c(C(F)(F)F)c3)no2)C(=O)N1CCN1CCOCC1 (stereo not drawn) [Compound 2, 3-((3-(4-(2-(isobutylsulfonyl)phenoxy)-3-(trifluoromethyl)phenyl)-1,2,4-oxadiazol-5-yl)methyl)-5-methyl-1-(2-morpholinoethyl)-5-propylimidazolidine-2,4-dione] | 95.2 | 1.5 | 90.5 | 190 | ≤ 4.6 | 182 | – | – | – | – |
| CC(C)CS(=O)(=O)c1ccccc1Oc1ccc(-c2noc(CN3C(=O)N(CCN4CCOCC4)C4(CCCCC4)C3=O)n2)cc1C(F)(F)F [Compound 3, 3-((3-(4-(2-(isobutylsulfonyl)phenoxy)-3-(trifluoromethyl)phenyl)-1,2,4-oxadiazol-5-yl)methyl)-1-(2-morpholinoethyl)-1,3-diazaspiro[4.5]decane-2,4-dione] | 78.5 | 1.24 | 74.7 | 117 | ≤ 4.6 | 112 | – | – | – | – |
| CC(C)CS(=O)(=O)c1ccccc1Oc1ccc(-c2noc(CN3C(=O)N(CCC4CCOCC4)C(C)(C)C3=O)n2)cc1C(F)(F)F [Compound 4, 3-((3-(4-(2-(isobutylsulfonyl)phenoxy)-3-(trifluoromethyl)phenyl)-1,2,4-oxadiazol-5-yl)methyl)-5,5-dimethyl-1-(2-(tetrahydro-2H-pyran-4-yl)ethyl)imidazolidine-2,4-dione] | – | – | – | 152 | ≤ 4.6 | 146 | – | – | – | – |
| CC(C)CS(=O)(=O)c1ccccc1Oc1ccc(-c2noc(CN3C(=O)NC(C)(C)C3=O)n2)cc1C(F)(F)F [Compound 50a, 3-((3-(4-(2-(isobutylsulfonyl)phenoxy)-3-(trifluoromethyl)phenyl)-1,2,4-oxadiazol-5-yl)methyl)-5,5-dimethylimidazolidine-2,4-dione] | 70.5 | – | 67 | – | – | – | 255 | – | – | – |
| CC1(C)C(=O)N(Cc2nc(-c3ccc(Oc4ccccc4S(=O)(=O)C4CCOC4)c(C(F)(F)F)c3)no2)C(=O)N1CCC1CCOCC1 (stereo not drawn) [Compound 59, 5,5-dimethyl-1-(2-(tetrahydro-2H-pyran-4-yl)ethyl)-3-((3-(4-(2-((tetrahydrofuran-3-yl)sulfonyl)phenoxy)-3-(trifluoromethyl)phenyl)-1,2,4-oxadiazol-5-yl)methyl)imidazolidine-2,4-dione] | – | – | – | 140 | ≤ 4.6 | 135 | – | – | – | – |
| CC(C)CS(=O)(=O)c1ccccc1Oc1ccc(-c2noc(CN3C(=O)N(CCN4CCOCC4)C(C)(CN(C)C)C3=O)n2)cc1C(F)(F)F (stereo not drawn) [Compound 60, 5-((dimethylamino)methyl)-3-((3-(4-(2-(isobutylsulfonyl)phenoxy)-3-(trifluoromethyl)phenyl)-1,2,4-oxadiazol-5-yl)methyl)-5-methyl-1-(2-morpholinoethyl)imidazolidine-2,4-dione] | – | – | – | – | – | – | – | 170 | ≤ 4.6 | 177 |
| CC1(C)C(=O)N(Cc2nc(-c3ccc(Oc4ccccc4S(=O)(=O)CCN(CCO)CCO)c(C(F)(F)F)c3)no2)C(=O)N1CCN1CCOCC1 [Compound 62, 3-((3-(4-(2-((2-(bis(2-hydroxyethyl)amino)ethyl)sulfonyl)phenoxy)-3-(trifluoromethyl)phenyl)-1,2,4-oxadiazol-5-yl)methyl)-5,5-dimethyl-1-(2-morpholinoethyl)imidazolidine-2,4-dione] | – | – | – | 154 | 9.7 | 148 | – | – | – | – |
| CC(C)CS(=O)(=O)c1ccccc1Oc1ccc(-c2noc(CN3C(=O)N(CCN4CCOCC4)C4(CCN(C(=O)CCC(=O)O)CC4)C3=O)n2)cc1C(F)(F)F [Compound 68, 4-(3-((3-(4-(2-(isobutylsulfonyl)phenoxy)-3-(trifluoromethyl)phenyl)-1,2,4-oxadiazol-5-yl)methyl)-1-(2-morpholinoethyl)-2,4-dioxo-1,3,8-triazaspiro[4.5]decan-8-yl)-4-oxobutanoic acid] | 84 | – | 79.9 | – | – | – | 4.6 | – | – | – |
| O=C(O)CCCCC(=O)N1CCC2(CC1)C(=O)N(Cc1nc(-c3ccc(Oc4ccccc4C(F)(F)F)c(C(F)(F)F)c3)no1)C(=O)N2CCN1CCOCC1 [Compound 69, 6-(1-(2-morpholinoethyl)-2,4-dioxo-3-((3-(3-(trifluoromethyl)-4-(2-(trifluoromethyl)phenoxy)phenyl)-1,2,4-oxadiazol-5-yl)methyl)-1,3,8-triazaspiro[4.5]decan-8-yl)-6-oxohexanoic acid] | 76.4 | 0.665 | 72.7 | – | – | – | – | – | – | – |
| CC1(C)NC(=O)N(Cc2nc(-c3ccc(Oc4ccccc4SC(F)(F)F)c(C(F)(F)F)c3)no2)C1=O [Compound 70, 5,5-dimethyl-3-((3-(3-(trifluoromethyl)-4-(2-((trifluoromethyl)thio)phenoxy)phenyl)-1,2,4-oxadiazol-5-yl)methyl)imidazolidine-2,4-dione] | – | – | – | 67.4 | 99.2 | 64.7 | – | – | – | – |
| CN1C(=O)N(Cc2nc(-c3ccc(Oc4ccccc4C(F)(F)F)c(C(F)(F)F)c3)no2)C(=O)C1(C)C [Compound 72, 1,5,5-trimethyl-3-((3-(3-(trifluoromethyl)-4-(2-(trifluoromethyl)phenoxy)phenyl)-1,2,4-oxadiazol-5-yl)methyl)imidazolidine-2,4-dione] | – | – | – | 82.8 | 29.8 | 79.5 | – | – | – | – |
